Reference: patent US12421212B2, “Substituted benzenecarboxamides as IL-17A modulators” (DiCE Alpha, Inc., priority 2019, dated 2025)

Target: T1, IL-17A/A (Homo sapiens, UniProt Q16552)
T1 construct: purchased Genscript Z03228
T1 sequence (Q16552 24-155): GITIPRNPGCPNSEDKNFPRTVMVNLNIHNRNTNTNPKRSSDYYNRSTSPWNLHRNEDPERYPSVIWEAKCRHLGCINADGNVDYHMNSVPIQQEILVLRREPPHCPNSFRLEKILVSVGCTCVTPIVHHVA
Assay: IL-17A/A HEK-Blue Cell Assay
Assay type: cell-based
Conditions: HEK-Blue IL-17A reporter cell line, SEAP readout at A630, 20 hours incubation with IL-17A/A; top concentration 10 uM, 1 uM or 0.3 uM

SMILES | IL-17A/A inhibition (pIC50)
CCn1nccc1C(=O)N[C@H](C(=O)Nc1ccc([C@H](C)[C@@H](NC(=O)NC2CC2)C(=O)N2CCN(C)CC2)cc1F)[C@H]1CC[C@H](C)CC1 [Compound 404] | B (8>B≥7 as B)

Same assay, conditions: HEK-Blue IL-17A reporter cell line, SEAP readout at A630, 20 hours incubation with IL-17A/A; top concentration 10 uM, 1 uM or 0.3 uM; read-out: IL-17A/A inhibition (pIC50) (converted)

SMILES | IC50 [nM]
CCC(=O)N[C@@H](C(=O)N1CCC(C)CC1)[C@@H](C)c1ccc(NC(=O)[C@@H](NC(=O)c2ccnn2C2CCCC2)[C@H]2CC[C@H](C)CC2)c(F)c1 [Compound 375] | 10 to 100
CCC(=O)N[C@@H](C(=O)N1CCC(C)(O)CC1)[C@@H](C)c1ccc(NC(=O)[C@@H](NC(=O)C(F)(F)c2nc(C)cs2)[C@H]2CC[C@H](C)CC2)c(F)c1 [Compound 376] | 10 to 100
CCC(=O)N[C@@H](C(=O)N1CCC(C)(O)CC1)[C@@H](C)c1ccc(NC(=O)[C@@H](NC(=O)c2ccnn2C(C)C)[C@H]2CC[C@H](C)CC2)c(F)c1 [Compound 377] | 10 to 100
CCC(=O)N[C@@H](C(=O)N1CCC(C)(O)CC1)[C@@H](C)c1ccc(NC(=O)[C@@H](NC(=O)C(F)(F)c2cncs2)[C@H]2CC[C@H](C)CC2)c(F)c1 [Compound 378] | 10 to 100
C[C@@H](c1ccc(NC(=O)[C@@H](NC(=O)c2ccnn2C2CCCC2)[C@H]2CC[C@H](C)CC2)c(F)c1)[C@@H](NC(=O)C1(F)CC1)C(=O)N1CCOCC1 [Compound 380] | 10 to 100
CCn1nccc1C(=O)N[C@H](C(=O)Nc1ccc([C@H](C)[C@@H](NC(=O)c2cnns2)C(=O)N2CCOCC2)cc1F)[C@H]1CC[C@H](C)CC1 [Compound 381] | 10 to 100
CCC(=O)N[C@H](Cc1ccc(NC(=O)[C@@H](NC(=O)c2ccnn2CC)C2CCCCC2)c(F)c1)C(=O)N1CCC(C)(O)CC1 [Compound 382] | 10 to 100
C[C@@H](c1ccc(NC(=O)[C@@H](NC(=O)C(F)(F)c2cccc(C#N)c2)C2CCCCCC2)c(F)c1)[C@@H](O)C(=O)N1CCN(C)CC1 [Compound 383] | 10 to 100
C[C@@H](c1ccc(NC(=O)[C@@H](NC(=O)C(F)(F)c2cccc(C#N)c2)C2CCCCCC2)c(F)c1)[C@@H](NC(=O)c1cnns1)C(=O)N1CCN(C)CC1 [Compound 391] | < 10
CCC(=O)N[C@@H](C(=O)N1CCN(C)CC1)[C@@H](C)c1ccc(NC(=O)[C@@H](NC(=O)c2conc2C2(C)COC2)[C@H]2CC[C@H](C)CC2)c(F)c1 [Compound 397] | 10 to 100
CC(C)n1nccc1C(=O)N[C@H](C(=O)Nc1ccc([C@H](C)[C@@H](NC(=O)c2ccnn2C2CCC2)C(=O)N2CCN(C)CC2)cc1F)[C@H]1CC[C@H](C)CC1 [Compound 398] | < 10
CC(C)n1nccc1C(=O)N[C@H](C(=O)Nc1ccc([C@H](C)[C@@H](NC(=O)c2ccnn2C2CC2)C(=O)N2CCN(C)CC2)cc1F)[C@H]1CC[C@H](C)CC1 [Compound 399] | < 10
COc1cncc(C(F)(F)C(=O)N[C@H](C(=O)Nc2ccc([C@H](C)[C@@H](NC(=O)c3cnns3)C(=O)N3CCN(C)CC3)cc2F)[C@H]2CC[C@H](C)CC2)c1 [Compound 400] | < 10
CCC(=O)NC(C(=O)N1CCN(C)CC1)C(C)c1ccc(NC(=O)C(NC(=O)C(F)(F)c2cnc(OC)nc2)C2CCC(C)CC2)c(F)c1 (stereo not drawn) [Compound 405] | 10 to 100
CCn1cc(C(F)(F)C(=O)N[C@H](C(=O)Nc2ccc([C@H](C)[C@@H](NC(=O)c3cnns3)C(=O)N3CCN(C)CC3)cc2F)[C@H]2CC[C@H](C)CC2)cn1 [Compound 407] | < 10
CCc1nonc1C(=O)N[C@H](C(=O)Nc1ccc([C@H](C)[C@@H](NC(=O)c2cnns2)C(=O)N2CCN(C)CC2)cc1F)[C@H]1CC[C@H](C)CC1 [Compound 408] | < 10
CCc1ccoc1C(=O)N[C@H](C(=O)Nc1ccc([C@H](C)[C@@H](NC(=O)c2cnns2)C(=O)N2CCN(C)CC2)cc1F)[C@H]1CC[C@H](C)CC1 [Compound 409] | 10 to 100
CCn1ncnc1C(=O)N[C@H](C(=O)Nc1ccc([C@H](C)[C@@H](NC(=O)c2cnns2)C(=O)N2CCN(C)CC2)cc1F)[C@H]1CC[C@H](C)CC1 [Compound 410] | 10 to 100
CCc1nocc1C(=O)N[C@H](C(=O)Nc1ccc([C@H](C)[C@@H](NC(=O)c2cnns2)C(=O)N2CCN(C)CC2)cc1F)[C@H]1CC[C@H](C)CC1 [Compound 414] | < 10
CCn1nccc1C(=O)N[C@H](C(=O)Nc1ccc([C@H](C)[C@@H](NC(=O)c2ccnn2C2CCOCC2)C(=O)N2CCC(C)(O)CC2)cc1F)[C@H]1CC[C@H](C)CC1 [Compound 417] | < 10
CCC(=O)N[C@@H](C(=O)N1CCN(C)CC1)[C@@H](C)c1ccc(NC(=O)C(NC(=O)C(F)(F)C2CCCCC2)[C@H]2CC[C@H](C)CC2)c(F)c1 (stereo partly drawn) [Compound 419] | 10 to 100
CCC(=O)N[C@@H](C(=O)N1CCC(CC(=O)OC(C)(C)C)CC1)[C@@H](C)c1ccc(NC(=O)[C@@H](NC(=O)c2ccnn2CC)[C@H]2CC[C@H](C)CC2)c(F)c1 [Compound 421] | 10 to 100

Continued, values first:

IC50 [nM] | SMILES
10 to 100 | CCn1nccc1C(=O)N[C@H](C(=O)Nc1ccc([C@H](C)[C@@H](NC(=O)c2cnns2)C(=O)N2CCN(C)CC2)cc1F)[C@H]1CC[C@H](C)CC1 [Compound 388]
10 to 100 | CCC(=O)N[C@H](C(=O)N1CCN(C)CC1)[C@H](C)c1ccc(NC(=O)[C@@H](NC(=O)c2ccnn2CC)[C@@H](C)OC2CCCCC2)c(F)c1 [Compound 389]
< 10 | CCC(=O)N[C@@H](C(=O)N1CCN(C)CC1)[C@@H](C)c1ccc(NC(=O)C(NC(=O)c2ccnn2CC)[C@@H](C)C2CCCCC2)c(F)c1 (stereo partly drawn) [Compound 390]
10 to 100 | CCC(=O)N[C@@H](C(=O)N1CCS(=O)(=O)CC1)[C@@H](C)c1ccc(NC(=O)[C@@H](NC(=O)c2ccnn2CC)[C@H]2CC[C@H](C)CC2)c(F)c1 [Compound 392]
10 to 100 | CCC(=O)N[C@@H](C(=O)N1CCN(C)CC1)[C@@H](C)c1ccc(NC(=O)C(NC(=O)c2ccnn2C(C)C)C(C)c2ccc(F)cc2)c(F)c1 (stereo partly drawn) [Compound 393]
< 10 | CCC(=O)N[C@@H](C(=O)N1CCN(C)CC1)[C@@H](C)c1ccc(NC(=O)C(NC(=O)C(F)(F)c2ccc(OC)nc2)[C@@H](C)C2CCCCC2)c(F)c1 (stereo partly drawn) [Compound 394]
10 to 100 | CCn1nccc1C(=O)N[C@H](C(=O)Nc1ccc([C@H](C)[C@@H](NC(=O)CC2CC2)C(=O)N2CCN(C)CC2)cc1F)[C@H]1CC[C@H](C)CC1 [Compound 396]
10 to 100 | CCn1nccc1C(=O)N[C@H](C(=O)Nc1ccc([C@H](C)[C@@H](NC(=O)NC2CC2)C(=O)N2CCN(C)CC2)cc1)C1CCCCC1 [Compound 402]
10 to 100 | CCn1nccc1C(=O)N[C@H](C(=O)Nc1ccc([C@H](C)[C@@H](NC(=O)C2(F)CC2)C(=O)N2CCN(C)CC2)cc1F)[C@H]1CC[C@H](C)CC1 [Compound 406]
10 to 100 | CCC(=O)N[C@@H](C(=O)N1CCN(C)CC1)[C@@H](C)c1ccc(NC(=O)C(NC(=O)C(F)(F)c2cnc(OC)nc2)C2CCCCCC2)c(F)c1 (stereo partly drawn) [Compound 418]
< 10 | CCC(=O)N[C@@H](C(=O)N1CCN(C(C)(C)C)CC1)[C@@H](C)c1ccc(NC(=O)[C@@H](NC(=O)c2ccnn2CC)[C@H]2CC[C@H](C)CC2)c(F)c1 [Compound 420]
10 to 100 | CCC(=O)N[C@@H](C(=O)N1CCC(CC(=O)O)CC1)[C@@H](C)c1ccc(NC(=O)[C@@H](NC(=O)c2ccnn2CC)[C@H]2CC[C@H](C)CC2)c(F)c1 [Compound 422]
10 to 100 | CCC(=O)N[C@@H](C(=O)N1CCN(CCO)CC1)[C@@H](C)c1ccc(NC(=O)[C@@H](NC(=O)c2ccnn2CC)[C@H]2CC[C@H](C)CC2)c(F)c1 [Compound 423]
